Results published in ChEMBL document CHEMBL1137864, “End-capping of the modified melanocortin tetrapeptide (p-Cl)Phe-D-Phe-Arg-Trp-NH2 as a route to hMC4R agonists” (Bioorg Med Chem Lett, 2004).

Experiments:
[1] = molecular target: Melanocyte-stimulating hormone receptor (Homo sapiens, UniProt Q01726); assay: Agonistic activity against human Melanocortin 1 receptor; assay type: functional
[2] = molecular target: Melanocortin receptor (M3 and M4) (Homo sapiens) (UniProt P32245+P41968); assay: Ratio of EC50 of Melanocortin 4 receptor to that of Melanocortin 3 receptor; assay type: protein assay
Melanocortin receptor 4 = Melanocortin receptor 4 (Homo sapiens, UniProt P32245); assay: Agonistic activity against human Melanocortin 4 receptor; assay type: functional
Melanocortin receptor 4, sequence (P32245 whole entry): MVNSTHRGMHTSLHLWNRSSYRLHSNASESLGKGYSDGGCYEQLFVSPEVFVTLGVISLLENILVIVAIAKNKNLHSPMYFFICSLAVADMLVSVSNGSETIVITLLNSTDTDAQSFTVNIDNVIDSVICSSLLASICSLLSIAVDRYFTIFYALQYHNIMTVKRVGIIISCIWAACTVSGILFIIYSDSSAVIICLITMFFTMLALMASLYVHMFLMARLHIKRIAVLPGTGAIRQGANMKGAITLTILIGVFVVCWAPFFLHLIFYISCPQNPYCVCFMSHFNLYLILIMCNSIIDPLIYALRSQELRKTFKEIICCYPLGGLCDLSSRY

[3] = molecular target: Melanocortin receptor (M1 and M4) (Homo sapiens) (UniProt P32245+Q01726); assay: Ratio of EC50 of Melanocortin 4 receptor to that of Melanocortin 1 receptor; assay type: protein assay
Melanocortin receptor 3 = Melanocortin receptor 3 (Homo sapiens, UniProt P41968); assay: Agonistic activity against human Melanocortin 3 receptor; assay type: functional
Melanocortin receptor 3, sequence (P41968 whole entry): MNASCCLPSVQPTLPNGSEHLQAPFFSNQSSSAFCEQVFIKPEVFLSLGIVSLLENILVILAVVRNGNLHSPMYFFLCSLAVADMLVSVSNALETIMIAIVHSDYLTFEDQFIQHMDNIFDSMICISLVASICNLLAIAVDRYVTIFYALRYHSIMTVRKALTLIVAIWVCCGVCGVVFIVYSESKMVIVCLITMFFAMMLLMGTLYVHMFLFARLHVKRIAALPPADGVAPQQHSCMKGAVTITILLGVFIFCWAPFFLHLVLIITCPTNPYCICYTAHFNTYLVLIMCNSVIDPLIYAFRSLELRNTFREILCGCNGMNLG

Melanocyte-stimulating hormone receptor, sequence (Q01726 whole entry): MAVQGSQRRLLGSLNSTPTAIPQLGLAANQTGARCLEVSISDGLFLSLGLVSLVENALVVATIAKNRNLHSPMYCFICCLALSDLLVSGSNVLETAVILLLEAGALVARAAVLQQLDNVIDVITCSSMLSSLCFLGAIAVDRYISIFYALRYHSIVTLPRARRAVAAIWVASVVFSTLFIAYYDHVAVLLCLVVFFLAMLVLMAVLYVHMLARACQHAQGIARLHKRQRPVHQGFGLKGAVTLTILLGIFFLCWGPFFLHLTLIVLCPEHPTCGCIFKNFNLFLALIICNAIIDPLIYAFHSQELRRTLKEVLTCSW

Question: `N=C(N)NCCC[C@H](NC(=O)C(Cc1ccccc1)NC(=O)[C@H](Cc1ccc(Cl)cc1)NS(=O)(=O)C(F)(F)F)C(=O)N[C@@H](Cc1c[nH]c2ccccc12)C(N)=O` (stereo in doubt) was tested. Which EC50 [1] did it give?
Answer: 2160 nM

Question: And the Ratio [2]?
Answer: 0.4

Question: What about the EC50 (Melanocortin receptor 4) of the same compound?
Answer: 4530 nM

Question: And the Ratio [3]?
Answer: 0.5

Question: What about the EC50 (Melanocortin receptor 3) of the same compound?
Answer: 1670 nM

Question: What does the source list for `COP(=S)(N[C@@H](Cc1ccc(Cl)cc1)C(=O)NC(Cc1ccccc1)C(=O)N[C@@H](CCCN=C(N)N)C(=O)N[C@@H](Cc1c[nH]c2ccccc12)C(N)=O)OC` (stereo in doubt)?
Answer: EC50 [1]: 1890 nM; Ratio [2]: 4; EC50 (Melanocortin receptor 4): 446 nM; Ratio [3]: 4; EC50 (Melanocortin receptor 3): 1600 nM

Question: What does the source list for `C=CCC(=O)N[C@@H](Cc1ccc(Cl)cc1)C(=O)NC(Cc1ccccc1)C(=O)N[C@@H](CCCNC(=N)N)C(=O)N[C@@H](Cc1c[nH]c2ccccc12)C(N)=O` (stereo in doubt)?
Answer: EC50 [1]: 856 nM; Ratio [2]: 63; EC50 (Melanocortin receptor 4): 13.7 nM; Ratio [3]: 62; EC50 (Melanocortin receptor 3): 863 nM

Question: `N=C(N)NCCC[C@H](NC(=O)C(Cc1ccccc1)NC(=O)[C@H](Cc1ccc(Cl)cc1)NC(=O)c1ccccn1)C(=O)N[C@@H](Cc1c[nH]c2ccccc12)C(N)=O` (stereo in doubt) was tested. Which EC50 [1] did it give?
Answer: 947 nM

Question: What about the Ratio [2] of the same compound?
Answer: 14

Question: And the EC50 (Melanocortin receptor 4)?
Answer: 31.3 nM

Question: What about the Ratio [3] of the same compound?
Answer: 30

Question: And the EC50 (Melanocortin receptor 3)?
Answer: 452 nM

Question: With `N=C(N)NCCC[C@H](NC(=O)C(Cc1ccccc1)NC(=O)[C@H](Cc1ccc(Cl)cc1)NC(=O)CCc1ccccc1)C(=O)N[C@@H](Cc1c[nH]c2ccccc12)C(N)=O` (stereo in doubt) as the compound, how does the EC50 [1] read?
Answer: 442 nM

Question: What about the Ratio [2] of the same compound?
Answer: 1

Question: And the EC50 (Melanocortin receptor 4)?
Answer: 121 nM

Question: What about the Ratio [3] of the same compound?
Answer: 4

Question: What about the EC50 (Melanocortin receptor 3) of the same compound?
Answer: 170 nM

Question: `N=C(N)NCCC[C@H](NC(=O)C(Cc1ccccc1)NC(=O)[C@H](Cc1ccc(Cl)cc1)NC(=O)c1ccccc1)C(=O)N[C@@H](Cc1c[nH]c2ccccc12)C(N)=O` (stereo in doubt) was tested. Which EC50 [1] did it give?
Answer: 700 nM

Question: And the Ratio [2]?
Answer: 4

Question: And the EC50 (Melanocortin receptor 4)?
Answer: 135 nM

Question: And the Ratio [3]?
Answer: 5

Question: And the EC50 (Melanocortin receptor 3)?
Answer: 556 nM

Question: Which results are given for `N=C(N)NCCC[C@H](NC(=O)C(Cc1ccccc1)NC(=O)[C@H](Cc1ccc(Cl)cc1)NC(=O)CC(N)=O)C(=O)N[C@@H](Cc1c[nH]c2ccccc12)C(N)=O` (stereo in doubt)?
Answer: EC50 [1]: 597 nM; Ratio [2]: 70; EC50 (Melanocortin receptor 4): 14.5 nM; Ratio [3]: 41; EC50 (Melanocortin receptor 3): 1010 nM

Question: With `CC(C)(C)C(=O)N[C@@H](Cc1ccc(Cl)cc1)C(=O)NC(Cc1ccccc1)C(=O)N[C@@H](CCCN=C(N)N)C(=O)N[C@@H](Cc1c[nH]c2ccccc12)C(N)=O` (stereo in doubt) as the compound, how does the EC50 [1] read?
Answer: 381 nM

Question: And the Ratio [2]?
Answer: 6

Question: And the EC50 (Melanocortin receptor 4)?
Answer: 23.7 nM

Question: What about the Ratio [3] of the same compound?
Answer: 16

Question: And the EC50 (Melanocortin receptor 3)?
Answer: 145 nM

Question: Which EC50 [1] does the source give for `CN(C)C(=O)N[C@@H](Cc1ccc(Cl)cc1)C(=O)NC(Cc1ccccc1)C(=O)N[C@@H](CCCN=C(N)N)C(=O)N[C@@H](Cc1c[nH]c2ccccc12)C(N)=O` (stereo in doubt) here?
Answer: 2160 nM

Question: What about the Ratio [2] of the same compound?
Answer: 4

Question: What about the EC50 (Melanocortin receptor 4) of the same compound?
Answer: 42 nM

Question: And the Ratio [3]?
Answer: 51

Question: And the EC50 (Melanocortin receptor 3)?
Answer: 175 nM

Question: Which results are given for `CS(=O)(=O)N[C@@H](Cc1ccc(Cl)cc1)C(=O)NC(Cc1ccccc1)C(=O)N[C@@H](CCCN=C(N)N)C(=O)N[C@@H](Cc1c[nH]c2ccccc12)C(N)=O` (stereo in doubt)?
Answer: EC50 [1]: 534 nM; Ratio [2]: 16; EC50 (Melanocortin receptor 4): 419 nM; Ratio [3]: 1; EC50 (Melanocortin receptor 3): 6700 nM

Question: With `CCOC(=O)N[C@@H](Cc1ccc(Cl)cc1)C(=O)NC(Cc1ccccc1)C(=O)N[C@@H](CCCN=C(N)N)C(=O)N[C@@H](Cc1c[nH]c2ccccc12)C(N)=O` (stereo in doubt) as the compound, how does the EC50 [1] read?
Answer: 211 nM

Question: And the Ratio [2]?
Answer: 88

Question: What about the EC50 (Melanocortin receptor 4) of the same compound?
Answer: 35 nM

Question: What about the Ratio [3] of the same compound?
Answer: 6

Question: And the EC50 (Melanocortin receptor 3)?
Answer: 3080 nM
